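48-hour exposure; five concentrations; linearly interpolated endpoints. TGI marks complete inhibition of growth.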

Some test systems named below: U251 CNS; M14 melanoma; PC-3 prostate; SF-268 CNS; MOLT-4 leukemia; COLO 205 colon; SK-OV-3 ovarian; HOP-92 NSCLC; OVCAR-3 ovarian; ACHN renal; 786-0 renal.
Holding throughout (assay): NCI anticancer screen, dose series, 48 h

`O=C1CC2(CCC(O)(c3cccs3)C(C(=O)c3cccs3)C2)C(=O)c2ccccc2N1` (stereo not given): the TGI in the test with U251 CNS, in the test with M14 melanoma, in the test on PC-3 prostate, in the test on SF-268 CNS, in the test with MOLT-4 leukemia and with COLO 205 colon was more than 100 µM each time. In addition, the TGI in the test on SK-OV-3 ovarian, in the test with HOP-92 NSCLC and in the test on OVCAR-3 ovarian was more than 100 µM in each case.

Consider `C1=CC(=[N+]2N=C(c3ccccc3)CC2c2ccccc2)C=CC1=C1SC(c2ccccc2)(c2ccccc2)c2ccccc21` (stereo not given), for which the TGI with U251 CNS, in the test with ACHN renal, in the test with M14 melanoma, in the test on PC-3 prostate, in the test on SF-268 CNS and in the test with 786-0 renal was more than 100 µM throughout. Moreover, the TGI with MOLT-4 leukemia, in the test on SK-OV-3 ovarian, in the test on HOP-92 NSCLC and with OVCAR-3 ovarian was more than 100 µM throughout.

As for `N#Cc1c(N)nc2c(c1-c1ccc(Br)cc1)CSc1ccccc1-2`, the TGI in the test with U251 CNS is more than 100 µM; in the test with M14 melanoma, more than 100 µM; with PC-3 prostate it was 86.5 µM; in the test on SF-268 CNS, more than 100 µM; in the test on 786-0 renal, more than 100 µM; with MOLT-4 leukemia, more than 100 µM. Further, the TGI was 32.2 µM in the test with COLO 205 colon, more than 100 µM in the test with SK-OV-3 ovarian, 50.2 µM in the test on HOP-92 NSCLC and more than 100 µM in the test on OVCAR-3 ovarian.

Turning to `Nc1ccc(Oc2ccc(C34CC5CC(C3)CC(c3ccc(Oc6ccc(N)cc6)cc3)(C5)C4)cc2)cc1`, the TGI in the test on U251 CNS was 21.6 µM; with ACHN renal, more than 51.4 µM; in the test on M14 melanoma, 23.5 µM; in the test with PC-3 prostate, 25.7 µM; with SF-268 CNS it was more than 51.7 µM; in the test on 786-0 renal, more than 52.1 µM. Besides, the TGI in the test on MOLT-4 leukemia is more than 100 µM; in the test with COLO 205 colon, more than 58.7 µM; with SK-OV-3 ovarian, more than 70.1 µM; in the test with HOP-92 NSCLC it was 25.8 µM; in the test on OVCAR-3 ovarian, more than 32.3 µM.

For the molecule `CCOC(=O)C(=O)NCCCN1CCOCC1`, the TGI with U251 CNS, in the test on ACHN renal, in the test with M14 melanoma, with SF-268 CNS, with MOLT-4 leukemia and in the test on COLO 205 colon was more than 100 µM each time. The TGI in the test on SK-OV-3 ovarian, with HOP-92 NSCLC and in the test on OVCAR-3 ovarian was more than 100 µM each time.

In the case of `O=c1c2ccccc2[nH]c(=S)n1-c1ccc(N=Nc2cccc3cc(O)ccc23)cc1`, the TGI with U251 CNS, with ACHN renal, with M14 melanoma, with PC-3 prostate, with SF-268 CNS and with 786-0 renal was more than 100 µM throughout. Moreover, the TGI with MOLT-4 leukemia, in the test with COLO 205 colon, in the test with SK-OV-3 ovarian, in the test with HOP-92 NSCLC and with OVCAR-3 ovarian was more than 100 µM throughout.

For the molecule `O=[N+]([O-])c1ccc2c(c1)nc(Cc1ccc(Cl)cc1)n2C[C@@H]1CCCN2CCCCC12` (stereo not given in full), the TGI was 45.5 µM in the test on U251 CNS; 29 µM in the test on ACHN renal; 25.9 µM with M14 melanoma; more than 51.7 µM in the test with PC-3 prostate; 6.27 µM with SF-268 CNS; 24.5 µM in the test on 786-0 renal. The TGI with MOLT-4 leukemia is more than 44.8 µM; in the test with COLO 205 colon it was 29.2 µM; with SK-OV-3 ovarian it was 43.5 µM; with HOP-92 NSCLC, 25.4 µM; in the test on OVCAR-3 ovarian, 30.8 µM.

For the molecule `Cc1cc(=O)[nH]c(/N=C(\N)Nc2ccc(Cl)cc2)n1`, the TGI with U251 CNS, in the test with ACHN renal, in the test on M14 melanoma, with PC-3 prostate, in the test on SF-268 CNS and with 786-0 renal was more than 100 µM in each case. Besides, the TGI in the test on MOLT-4 leukemia, in the test with HOP-92 NSCLC and with OVCAR-3 ovarian was more than 100 µM throughout.

As to `O=c1[nH]c(Nc2ccc(Cl)cc2)nc2nc[nH]c12`, the TGI in the test with U251 CNS, with ACHN renal, with M14 melanoma, in the test on PC-3 prostate, in the test with SF-268 CNS and in the test on 786-0 renal was more than 100 µM each time. The TGI in the test with COLO 205 colon, with SK-OV-3 ovarian, in the test on HOP-92 NSCLC and with OVCAR-3 ovarian was more than 100 µM throughout.

As to `COC(=O)C1=C(O)CCCC(CCC(C)=O)=C1`, the TGI was more than 100 µM in the test on U251 CNS; more than 100 µM in the test with ACHN renal; more than 100 µM in the test on M14 melanoma; more than 100 µM in the test with PC-3 prostate; more than 100 µM in the test with SF-268 CNS; 77.3 µM in the test with 786-0 renal. In addition, the TGI in the test with MOLT-4 leukemia was more than 100 µM; in the test with COLO 205 colon, 55.2 µM; in the test on SK-OV-3 ovarian, more than 100 µM; in the test with HOP-92 NSCLC, 95.7 µM; in the test with OVCAR-3 ovarian it was more than 100 µM.

In the case of `COc1ccc(C2c3cc4c(cc3OC(O)(CO)C2C(=O)O)OCO4)cc1` (stereo not given) (tested in a mixture with another compound), the TGI in the test on U251 CNS is 36.5 µM; with M14 melanoma it was 29.1 µM; with SF-268 CNS it was 94.3 µM; with MOLT-4 leukemia, 57.8 µM; in the test with COLO 205 colon it was more than 100 µM; with SK-OV-3 ovarian, 98.5 µM. In addition, the TGI in the test with HOP-92 NSCLC amounted to 41.7 µM; with OVCAR-3 ovarian it was 54.4 µM.

On to `O=S(=O)(O)c1cc(N=[N+]([O-])c2cc(S(=O)(=O)O)c3ccccc3c2)cc2ccccc12`, for which the TGI in the test with U251 CNS, in the test on ACHN renal, with M14 melanoma, with PC-3 prostate, in the test with SF-268 CNS and in the test with 786-0 renal was more than 100 µM throughout. The TGI in the test on COLO 205 colon was more than 100 µM; in the test on SK-OV-3 ovarian, more than 100 µM; in the test with HOP-92 NSCLC it was more than 100 µM; in the test on OVCAR-3 ovarian, 28.2 µM.

`COC(CN(C=O)[C@@H](c1ccc(Cl)cc1)c1cc2ccccc2o1)OC`: the TGI in the test on U251 CNS was 31.8 µM; in the test on ACHN renal, 41.7 µM; in the test with M14 melanoma, 37.1 µM; in the test on PC-3 prostate, 45.6 µM; with SF-268 CNS, 30.9 µM; with 786-0 renal, 51.1 µM. Further, the TGI in the test with MOLT-4 leukemia came out at 40 µM; with COLO 205 colon, 33.5 µM; with SK-OV-3 ovarian, 26.6 µM; with HOP-92 NSCLC it was 33.7 µM; in the test on OVCAR-3 ovarian it was 26.8 µM.
